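Method: 48-hour compound exposure of cells in 96-well plates, five concentrations, linear interpolation of endpoints. TGI marks complete inhibition of growth.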
How the values were obtained:
Test in all cases: NCI-60 cell line screen, 48 h
[1] = test system: 786-0 renal
[2] = test system: A549 NSCLC
[3] = test system: ACHN renal
[4] = test system: CAKI-1 renal
[5] = test system: CCRF-CEM leukemia
[6] = test system: COLO 205 colon
[7] = test system: DLD-1 colon
[8] = test system: DMS 273 small cell lung
[9] = test system: EKVX NSCLC
[10] = test system: HCC-2998 colon
[11] = test system: HCT-116 colon
[12] = test system: HCT-15 colon
[13] = test system: HL-60(TB) leukemia
[14] = test system: HOP-18 NSCLC
[15] = test system: HOP-62 NSCLC
[16] = test system: HOP-92 NSCLC
[17] = test system: HT29 colon
[18] = test system: IGROV1 ovarian
[19] = test system: K-562 leukemia
[20] = test system: KM12 colon
[21] = test system: KM20L2 colon
[22] = test system: LOX IMVI melanoma
[23] = test system: LXFL 529 NSCLC
[24] = test system: M14 melanoma
[25] = test system: M19-MEL melanoma
[26] = test system: MALME-3M melanoma
[27] = test system: NCI-H226 lung
[28] = test system: NCI-H23 lung
[29] = test system: NCI-H460 lung
[30] = test system: NCI-H522 lung
[31] = test system: OVCAR-3 ovarian
[32] = test system: OVCAR-4 ovarian
[33] = test system: OVCAR-5 ovarian
[34] = test system: OVCAR-8 ovarian
[35] = test system: RPMI-8226 leukemia
[36] = test system: RXF 393 renal
[37] = test system: SF-268 CNS
[38] = test system: SF-295 CNS
[39] = test system: SF-539 CNS
[40] = test system: SK-MEL-2 melanoma
[41] = test system: SK-MEL-28 melanoma
[42] = test system: SK-MEL-5 melanoma
[43] = test system: SK-OV-3 ovarian
[44] = test system: SN12C renal
[45] = test system: SNB-19 CNS
[46] = test system: SNB-75 CNS
[47] = test system: SNB-78 CNS
[48] = test system: SR leukemia
[49] = test system: SW-620 colon
[50] = test system: TK-10 renal
[51] = test system: U251 CNS
[52] = test system: UACC-257 melanoma
[53] = test system: UACC-62 melanoma
[54] = test system: UO-31 renal
[55] = test system: XF 498 CNS
[56] = test system: A498 renal
[57] = test system: DMS 114 small cell lung
[58] = test system: MOLT-4 leukemia

SMILES: Cc1ccc(C(=O)O/N=C2/CCCC/C2=C\c2ccccc2)cc1
- TGI [1]: > 100 µM
- TGI [2]: 39.3 µM
- TGI [3]: > 100 µM
- TGI [4]: > 100 µM
- TGI [5]: > 100 µM
- TGI [6]: > 100 µM
- TGI [7]: > 100 µM
- TGI [8]: 76.9 µM
- TGI [9]: > 100 µM
- TGI [10]: > 100 µM
- TGI [11]: 32.7 µM
- TGI [12]: > 100 µM
- TGI [13]: 45.1 µM
- TGI [14]: > 100 µM
- TGI [15]: > 100 µM
- TGI [16]: > 100 µM
- TGI [17]: > 100 µM
- TGI [18]: > 100 µM
- TGI [19]: 38.6 µM
- TGI [20]: > 100 µM
- TGI [21]: > 100 µM
- TGI [22]: 44.2 µM
- TGI [23]: 30.9 µM
- TGI [24]: > 100 µM
- TGI [25]: > 100 µM
- TGI [26]: > 100 µM
- TGI [27]: > 100 µM
- TGI [28]: > 100 µM
- TGI [29]: > 100 µM
- TGI [30]: 31.7 µM
- TGI [31]: > 100 µM
- TGI [32]: > 100 µM
- TGI [33]: > 100 µM
- TGI [34]: > 100 µM
- TGI [35]: > 100 µM
- TGI [36]: > 100 µM
- TGI [37]: 28.2 µM
- TGI [38]: > 100 µM
- TGI [39]: > 100 µM
- TGI [40]: > 100 µM
- TGI [41]: 65.3 µM
- TGI [42]: > 100 µM
- TGI [43]: > 100 µM
- TGI [44]: > 100 µM
- TGI [45]: > 100 µM
- TGI [46]: > 100 µM
- TGI [47]: 53.4 µM
- TGI [48]: > 100 µM
- TGI [49]: > 100 µM
- TGI [50]: > 100 µM
- TGI [51]: > 100 µM
- TGI [52]: > 100 µM
- TGI [53]: > 100 µM
- TGI [54]: 31.5 µM
- TGI [55]: > 100 µM

SMILES: C=C1C(=O)OC2/C=C(\C)C(OC(C)=O)C3OC3C(C)(O)CC(OC(=O)/C(C)=C/C)C12 (centres undefined)
- TGI [1]: 16.4 µM
- TGI [56]: 32.1 µM
- TGI [2]: 42.6 µM
- TGI [3]: 31.7 µM
- TGI [4]: 5.94 µM
- TGI [5]: 9.45 µM
- TGI [6]: 12.9 µM
- TGI [57]: 20 µM
- TGI [8]: 60 µM
- TGI [9]: 34.9 µM
- TGI [10]: 21.3 µM
- TGI [11]: 5.86 µM
- TGI [12]: 30.8 µM
- TGI [13]: 5.81 µM
- TGI [14]: 23.5 µM
- TGI [15]: 37.4 µM
- TGI [16]: 23.5 µM
- TGI [17]: 32.7 µM
- TGI [18]: 35.7 µM
- TGI [19]: 18.9 µM
- TGI [20]: 28.7 µM
- TGI [21]: 15.2 µM
- TGI [22]: 30.4 µM
- TGI [23]: 10.1 µM
- TGI [24]: 16 µM
- TGI [25]: 22.3 µM
- TGI [26]: 21 µM
- TGI [58]: 85.6 µM
- TGI [27]: 23.4 µM
- TGI [28]: 34.4 µM
- TGI [29]: 29.1 µM
- TGI [30]: 3.37 µM
- TGI [31]: 15.8 µM
- TGI [32]: 62.2 µM
- TGI [33]: 32.3 µM
- TGI [34]: 24.4 µM
- TGI [35]: 28.2 µM
- TGI [36]: 19.3 µM
- TGI [37]: 30.2 µM
- TGI [38]: 42.4 µM
- TGI [39]: 14.2 µM
- TGI [40]: 20.6 µM
- TGI [41]: 16.2 µM
- TGI [42]: 27.4 µM
- TGI [43]: 34.5 µM
- TGI [44]: 47.4 µM
- TGI [45]: 33.7 µM
- TGI [46]: 97.4 µM
- TGI [47]: 30.5 µM
- TGI [48]: 23.2 µM
- TGI [49]: 1.89 µM
- TGI [50]: 24.6 µM
- TGI [51]: 24.5 µM
- TGI [52]: 28.8 µM
- TGI [53]: 23.5 µM
- TGI [54]: 23 µM
- TGI [55]: 18.2 µM

SMILES: O=C(NCCCCCCCCNC(=O)c1cnc2ccccc2n1)c1cnc2ccccc2n1
- TGI [1]: > 100 µM
- TGI [56]: > 100 µM
- TGI [2]: > 100 µM
- TGI [3]: > 100 µM
- TGI [4]: > 100 µM
- TGI [5]: > 100 µM
- TGI [6]: > 100 µM
- TGI [7]: > 100 µM
- TGI [57]: > 100 µM
- TGI [8]: > 100 µM
- TGI [9]: > 100 µM
- TGI [11]: > 100 µM
- TGI [12]: > 100 µM
- TGI [13]: > 100 µM
- TGI [14]: > 100 µM
- TGI [15]: > 100 µM
- TGI [16]: > 100 µM
- TGI [17]: > 100 µM
- TGI [18]: > 100 µM
- TGI [19]: > 100 µM
- TGI [20]: > 100 µM
- TGI [22]: > 100 µM
- TGI [23]: > 100 µM
- TGI [24]: > 100 µM
- TGI [25]: > 100 µM
- TGI [26]: > 100 µM
- TGI [58]: > 100 µM
- TGI [27]: > 100 µM
- TGI [28]: > 100 µM
- TGI [29]: > 100 µM
- TGI [31]: > 100 µM
- TGI [32]: > 100 µM
- TGI [33]: > 100 µM
- TGI [34]: > 100 µM
- TGI [35]: > 100 µM
- TGI [36]: > 100 µM
- TGI [37]: > 100 µM
- TGI [38]: > 100 µM
- TGI [39]: > 100 µM
- TGI [40]: > 100 µM
- TGI [42]: > 100 µM
- TGI [43]: > 100 µM
- TGI [44]: > 100 µM
- TGI [45]: > 100 µM
- TGI [46]: > 100 µM
- TGI [47]: > 100 µM
- TGI [48]: > 100 µM
- TGI [49]: > 100 µM
- TGI [50]: > 100 µM
- TGI [51]: > 100 µM
- TGI [52]: > 100 µM
- TGI [53]: > 100 µM
- TGI [54]: > 100 µM
- TGI [55]: > 100 µM

SMILES: O=C(CSc1nnc(-c2ccc(N=Cc3ccc(Cl)cc3)cc2)o1)Nc1ccccc1Cl
- TGI [1]: > 100 µM
- TGI [2]: > 100 µM
- TGI [3]: > 100 µM
- TGI [5]: > 100 µM
- TGI [6]: > 100 µM
- TGI [57]: > 100 µM
- TGI [8]: > 100 µM
- TGI [9]: > 100 µM
- TGI [11]: > 100 µM
- TGI [12]: > 100 µM
- TGI [13]: > 100 µM
- TGI [14]: > 100 µM
- TGI [15]: > 100 µM
- TGI [17]: > 100 µM
- TGI [19]: > 100 µM
- TGI [20]: > 100 µM
- TGI [21]: > 100 µM
- TGI [22]: > 100 µM
- TGI [23]: > 100 µM
- TGI [24]: > 100 µM
- TGI [25]: > 100 µM
- TGI [26]: > 100 µM
- TGI [58]: > 100 µM
- TGI [27]: > 100 µM
- TGI [28]: > 100 µM
- TGI [29]: > 100 µM
- TGI [30]: > 100 µM
- TGI [32]: > 100 µM
- TGI [34]: > 100 µM
- TGI [35]: > 100 µM
- TGI [36]: > 100 µM
- TGI [37]: > 100 µM
- TGI [38]: > 100 µM
- TGI [40]: > 100 µM
- TGI [41]: > 100 µM
- TGI [42]: > 100 µM
- TGI [43]: > 100 µM
- TGI [45]: > 100 µM
- TGI [46]: > 100 µM
- TGI [47]: > 100 µM
- TGI [48]: > 100 µM
- TGI [49]: > 100 µM
- TGI [50]: > 100 µM
- TGI [51]: > 100 µM
- TGI [52]: > 100 µM
- TGI [53]: > 100 µM
- TGI [54]: > 100 µM
- TGI [55]: > 100 µM

Source: PubChem BioAssay (NCI)
